{
  "source": "paper PMC8333425",
  "about": "“Discovery of a dual Ras and ARF6 inhibitor from a GPCR endocytosis screen” (Nature Communications, 2021)",
  "test_in_all_cases": "KINOMEscan kinase binding assay",
  "key": {"[1]": {"target": "T1, 384 kinases from the human genome (Homo sapiens, UniProt O14965)", "T1 construct": "purchased Eurofin/DiscoverX", "settings": "kinase AURKA (Entrez AURKA)", "in_short": "(§1)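 A panel of 384 human kinases was profiled by KINOMEscan binding in the presence of 10 µM compound. Kinase–ligand binding was given as percent of DMSO control, averaged from duplicates in a single run, with an S(10) selectivity score.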"}, "[2]": {"target": "T2, 384 kinases from the human genome (Homo sapiens, UniProt O14976)", "T2 construct": "purchased Eurofin/DiscoverX", "settings": "kinase GAK (Entrez GAK)", "in_short": "as §1"}, "[3]": {"target": "T3, 384 kinases from the human genome (Homo sapiens, UniProt O15264)", "T3 construct": "purchased Eurofin/DiscoverX", "settings": "kinase p38-delta (Entrez MAPK13)", "in_short": "as §1"}, "[4]": {"target": "T4, 384 kinases from the human genome (Homo sapiens, UniProt O43683)", "T4 construct": "purchased Eurofin/DiscoverX", "settings": "kinase BUB1 (Entrez BUB1)", "in_short": "as §1"}, "[5]": {"target": "T5, 384 kinases from the human genome (Homo sapiens, UniProt O75460)", "T5 construct": "purchased Eurofin/DiscoverX", "settings": "kinase ERN1 (Entrez ERN1)", "in_short": "as §1"}, "[6]": {"target": "T6, 384 kinases from the human genome (Homo sapiens, UniProt P19525)", "T6 construct": "purchased Eurofin/DiscoverX", "T6 sequence (P19525 whole entry)": "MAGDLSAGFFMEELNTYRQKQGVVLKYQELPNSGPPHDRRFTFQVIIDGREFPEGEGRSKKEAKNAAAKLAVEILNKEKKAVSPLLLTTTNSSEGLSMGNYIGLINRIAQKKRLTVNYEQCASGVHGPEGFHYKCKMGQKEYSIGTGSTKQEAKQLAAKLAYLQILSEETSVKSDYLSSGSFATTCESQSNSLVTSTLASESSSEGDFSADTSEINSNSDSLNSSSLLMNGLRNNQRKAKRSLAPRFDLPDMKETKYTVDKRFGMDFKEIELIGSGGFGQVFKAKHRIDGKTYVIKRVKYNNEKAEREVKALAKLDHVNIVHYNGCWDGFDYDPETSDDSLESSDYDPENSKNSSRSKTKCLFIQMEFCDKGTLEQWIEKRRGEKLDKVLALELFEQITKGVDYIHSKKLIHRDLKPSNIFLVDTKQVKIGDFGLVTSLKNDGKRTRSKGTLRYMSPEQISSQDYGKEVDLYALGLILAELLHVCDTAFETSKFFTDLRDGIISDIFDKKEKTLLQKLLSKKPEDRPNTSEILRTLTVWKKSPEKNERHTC", "settings": "kinase PRKR (Entrez EIF2AK2)", "in_short": "as §1"}, "[7]": {"target": "T7, 384 kinases from the human genome (Homo sapiens, UniProt P21127)", "T7 construct": "purchased Eurofin/DiscoverX", "settings": "kinase CDC2L1 (Entrez CDK11B)", "in_short": "as §1"}, "[8]": {"target": "T8, 384 kinases from the human genome (Homo sapiens, UniProt P30530)", "T8 construct": "purchased Eurofin/DiscoverX", "settings": "kinase AXL (Entrez AXL)", "in_short": "as §1"}, "[9]": {"target": "T9, 384 kinases from the human genome (Homo sapiens, UniProt P31152)", "T9 construct": "purchased Eurofin/DiscoverX", "T9 sequence (P31152 whole entry)": "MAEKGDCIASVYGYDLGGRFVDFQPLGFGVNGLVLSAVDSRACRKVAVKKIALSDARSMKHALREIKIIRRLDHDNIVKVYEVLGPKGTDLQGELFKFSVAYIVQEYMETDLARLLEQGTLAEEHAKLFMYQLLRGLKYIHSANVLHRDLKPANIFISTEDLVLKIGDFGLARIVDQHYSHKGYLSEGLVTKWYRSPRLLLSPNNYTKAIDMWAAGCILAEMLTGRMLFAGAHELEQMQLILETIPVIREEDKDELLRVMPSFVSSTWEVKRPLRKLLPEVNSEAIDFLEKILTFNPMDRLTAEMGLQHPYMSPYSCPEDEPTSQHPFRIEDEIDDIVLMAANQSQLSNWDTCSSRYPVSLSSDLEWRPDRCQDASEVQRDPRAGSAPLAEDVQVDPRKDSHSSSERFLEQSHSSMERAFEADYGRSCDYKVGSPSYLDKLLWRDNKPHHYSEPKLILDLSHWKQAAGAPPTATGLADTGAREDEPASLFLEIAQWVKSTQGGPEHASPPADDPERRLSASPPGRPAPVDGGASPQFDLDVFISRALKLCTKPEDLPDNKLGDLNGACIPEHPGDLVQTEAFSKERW", "settings": "kinase ERK4 (Entrez MAPK4)", "in_short": "as §1"}, "[10]": {"target": "T10, 384 kinases from the human genome (Homo sapiens, UniProt P35968)", "T10 construct": "purchased Eurofin/DiscoverX", "settings": "kinase VEGFR2 (Entrez KDR)", "in_short": "as §1"}, "[11]": {"target": "T11, 384 kinases from the human genome (Homo sapiens, UniProt P42680)", "T11 construct": "purchased Eurofin/DiscoverX", "settings": "kinase TEC (Entrez TEC)", "in_short": "as §1"}, "[12]": {"target": "T12, 384 kinases from the human genome (Homo sapiens, UniProt P51955)", "T12 construct": "purchased Eurofin/DiscoverX", "settings": "kinase NEK2 (Entrez NEK2)", "in_short": "as §1"}, "[13]": {"target": "T13, 384 kinases from the human genome (Homo sapiens, UniProt Q02156)", "T13 construct": "purchased Eurofin/DiscoverX", "T13 sequence (Q02156 whole entry)": "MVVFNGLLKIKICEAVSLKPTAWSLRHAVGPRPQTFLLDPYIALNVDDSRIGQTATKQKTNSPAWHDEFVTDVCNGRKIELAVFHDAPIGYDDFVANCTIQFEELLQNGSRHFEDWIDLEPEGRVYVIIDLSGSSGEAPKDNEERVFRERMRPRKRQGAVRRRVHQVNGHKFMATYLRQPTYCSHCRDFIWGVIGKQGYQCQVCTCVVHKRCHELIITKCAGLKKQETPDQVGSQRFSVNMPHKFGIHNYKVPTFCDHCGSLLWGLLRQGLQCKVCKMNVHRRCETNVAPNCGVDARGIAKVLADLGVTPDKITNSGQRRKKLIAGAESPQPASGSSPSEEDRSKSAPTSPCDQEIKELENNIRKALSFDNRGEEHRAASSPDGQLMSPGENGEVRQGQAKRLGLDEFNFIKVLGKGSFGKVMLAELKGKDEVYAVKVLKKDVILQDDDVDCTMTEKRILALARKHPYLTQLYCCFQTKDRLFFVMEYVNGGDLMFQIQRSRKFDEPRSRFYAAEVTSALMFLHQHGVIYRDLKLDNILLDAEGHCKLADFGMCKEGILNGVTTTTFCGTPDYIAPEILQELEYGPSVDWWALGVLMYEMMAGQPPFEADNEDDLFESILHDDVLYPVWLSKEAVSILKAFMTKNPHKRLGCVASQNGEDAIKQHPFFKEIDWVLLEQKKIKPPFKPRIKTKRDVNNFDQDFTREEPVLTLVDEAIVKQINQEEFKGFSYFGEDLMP", "settings": "kinase PRKCE (Entrez PRKCE)", "in_short": "as §1"}, "[14]": {"target": "T14, 384 kinases from the human genome (Homo sapiens, UniProt Q02779)", "T14 construct": "purchased Eurofin/DiscoverX", "T14 sequence (Q02779 whole entry)": "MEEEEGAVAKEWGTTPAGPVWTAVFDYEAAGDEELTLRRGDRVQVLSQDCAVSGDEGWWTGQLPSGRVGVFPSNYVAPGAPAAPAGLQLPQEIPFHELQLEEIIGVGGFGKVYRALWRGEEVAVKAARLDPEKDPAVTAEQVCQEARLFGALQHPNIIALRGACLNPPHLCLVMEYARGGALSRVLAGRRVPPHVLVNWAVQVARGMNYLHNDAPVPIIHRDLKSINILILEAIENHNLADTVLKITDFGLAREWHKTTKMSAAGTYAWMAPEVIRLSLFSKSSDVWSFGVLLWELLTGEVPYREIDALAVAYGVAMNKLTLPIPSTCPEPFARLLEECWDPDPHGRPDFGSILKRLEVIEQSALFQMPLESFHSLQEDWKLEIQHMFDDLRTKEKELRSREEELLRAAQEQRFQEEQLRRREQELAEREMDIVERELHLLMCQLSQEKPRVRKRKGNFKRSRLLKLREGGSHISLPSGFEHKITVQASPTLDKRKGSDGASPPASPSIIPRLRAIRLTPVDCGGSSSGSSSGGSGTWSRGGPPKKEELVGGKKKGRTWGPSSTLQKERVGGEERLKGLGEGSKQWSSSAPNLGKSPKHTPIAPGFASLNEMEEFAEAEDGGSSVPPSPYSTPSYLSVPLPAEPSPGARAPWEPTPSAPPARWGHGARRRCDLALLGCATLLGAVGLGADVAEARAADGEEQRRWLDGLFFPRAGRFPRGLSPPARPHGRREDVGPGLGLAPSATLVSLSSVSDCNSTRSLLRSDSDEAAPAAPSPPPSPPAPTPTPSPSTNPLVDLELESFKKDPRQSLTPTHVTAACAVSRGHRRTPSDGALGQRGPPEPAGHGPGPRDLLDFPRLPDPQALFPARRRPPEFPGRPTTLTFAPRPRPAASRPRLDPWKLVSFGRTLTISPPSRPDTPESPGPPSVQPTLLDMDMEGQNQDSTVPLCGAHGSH", "settings": "kinase MLK2 (Entrez MAP3K10)", "in_short": "as §1"}, "[15]": {"target": "T15, 384 kinases from the human genome (Homo sapiens, UniProt Q13163)", "T15 construct": "purchased Eurofin/DiscoverX", "settings": "kinase MEK5 (Entrez MAP2K5)", "in_short": "as §1"}, "[16]": {"target": "T16, 384 kinases from the human genome (Homo sapiens, UniProt Q15139)", "T16 construct": "purchased Eurofin/DiscoverX", "settings": "kinase PRKD1 (Entrez PRKD1)", "in_short": "as §1"}, "[17]": {"target": "T17, 384 kinases from the human genome (Homo sapiens, UniProt Q6P2M8)", "T17 construct": "purchased Eurofin/DiscoverX", "settings": "kinase CAMK1B (Entrez PNCK)", "in_short": "as §1"}, "[18]": {"target": "T18, 384 kinases from the human genome (Homo sapiens, UniProt Q8TD19)", "T18 construct": "purchased Eurofin/DiscoverX", "settings": "kinase NEK9 (Entrez NEK9)", "in_short": "as §1"}, "[19]": {"target": "T19, 384 kinases from the human genome (Homo sapiens, UniProt Q99640)", "T19 construct": "purchased Eurofin/DiscoverX", "settings": "kinase PKMYT1 (Entrez PKMYT1)", "in_short": "as §1"}, "[20]": {"target": "T20, 384 kinases from the human genome (Homo sapiens, UniProt Q99683)", "T20 construct": "purchased Eurofin/DiscoverX", "settings": "kinase ASK1 (Entrez MAP3K5)", "in_short": "as §1"}, "[21]": {"target": "T21, 384 kinases from the human genome (Homo sapiens, UniProt Q9HAZ1)", "T21 construct": "purchased Eurofin/DiscoverX", "settings": "kinase CLK4 (Entrez CLK4)", "in_short": "as §1"}, "[22]": {"target": "T22, 384 kinases from the human genome (Homo sapiens, UniProt Q9HBY8)", "T22 construct": "purchased Eurofin/DiscoverX", "settings": "kinase SGK2 (Entrez SGK2)", "in_short": "as §1"}, "[23]": {"target": "T23, 384 kinases from the human genome (Homo sapiens, UniProt Q9NYL2)", "T23 construct": "purchased Eurofin/DiscoverX", "settings": "kinase ZAK (Entrez ZAK)", "in_short": "as §1"}, "[24]": {"target": "T24, 384 kinases from the human genome (Homo sapiens, UniProt Q9UEE5)", "T24 construct": "purchased Eurofin/DiscoverX", "T24 sequence (Q9UEE5 whole entry)": "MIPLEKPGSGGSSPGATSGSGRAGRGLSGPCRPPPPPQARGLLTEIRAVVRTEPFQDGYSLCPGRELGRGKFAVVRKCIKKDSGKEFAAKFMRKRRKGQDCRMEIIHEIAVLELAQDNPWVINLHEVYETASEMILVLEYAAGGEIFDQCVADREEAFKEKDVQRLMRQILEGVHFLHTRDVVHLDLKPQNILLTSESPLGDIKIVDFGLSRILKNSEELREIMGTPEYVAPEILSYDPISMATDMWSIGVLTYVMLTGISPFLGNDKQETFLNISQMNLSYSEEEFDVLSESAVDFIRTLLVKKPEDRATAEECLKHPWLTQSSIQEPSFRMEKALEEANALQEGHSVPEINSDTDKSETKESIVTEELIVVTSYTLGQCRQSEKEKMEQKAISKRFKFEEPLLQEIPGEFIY", "settings": "kinase DRAK1 (Entrez STK17A)", "in_short": "as §1"}, "[25]": {"target": "T25, 384 kinases from the human genome (Homo sapiens, UniProt Q9UKI8)", "T25 construct": "purchased Eurofin/DiscoverX", "T25 sequence (Q9UKI8 whole entry)": "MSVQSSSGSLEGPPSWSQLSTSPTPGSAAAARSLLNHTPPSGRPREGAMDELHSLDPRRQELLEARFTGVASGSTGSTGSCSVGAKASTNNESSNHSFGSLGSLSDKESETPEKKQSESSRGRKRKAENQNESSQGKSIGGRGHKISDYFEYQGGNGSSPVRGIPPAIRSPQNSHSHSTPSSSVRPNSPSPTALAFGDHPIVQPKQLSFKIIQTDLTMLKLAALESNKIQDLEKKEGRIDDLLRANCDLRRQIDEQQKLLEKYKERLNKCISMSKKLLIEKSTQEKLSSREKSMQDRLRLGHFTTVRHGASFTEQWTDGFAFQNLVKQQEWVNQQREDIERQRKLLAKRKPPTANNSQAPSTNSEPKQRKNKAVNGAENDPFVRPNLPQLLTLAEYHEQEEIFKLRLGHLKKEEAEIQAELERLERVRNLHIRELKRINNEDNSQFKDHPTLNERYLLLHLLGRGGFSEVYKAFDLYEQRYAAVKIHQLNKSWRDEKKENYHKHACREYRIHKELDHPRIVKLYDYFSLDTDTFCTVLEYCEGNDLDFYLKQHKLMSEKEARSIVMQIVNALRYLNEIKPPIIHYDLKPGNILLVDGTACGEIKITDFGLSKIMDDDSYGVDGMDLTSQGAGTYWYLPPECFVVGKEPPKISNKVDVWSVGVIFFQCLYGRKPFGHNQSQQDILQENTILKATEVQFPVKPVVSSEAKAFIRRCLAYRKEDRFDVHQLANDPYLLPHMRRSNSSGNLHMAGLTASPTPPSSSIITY", "settings": "kinase TLK1 (Entrez TLK1)", "in_short": "as §1"}, "[26]": {"target": "T26, 384 kinases from the human genome (Homo sapiens, UniProt Q9Y4K4)", "T26 construct": "purchased Eurofin/DiscoverX", "T26 sequence (Q9Y4K4 whole entry)": "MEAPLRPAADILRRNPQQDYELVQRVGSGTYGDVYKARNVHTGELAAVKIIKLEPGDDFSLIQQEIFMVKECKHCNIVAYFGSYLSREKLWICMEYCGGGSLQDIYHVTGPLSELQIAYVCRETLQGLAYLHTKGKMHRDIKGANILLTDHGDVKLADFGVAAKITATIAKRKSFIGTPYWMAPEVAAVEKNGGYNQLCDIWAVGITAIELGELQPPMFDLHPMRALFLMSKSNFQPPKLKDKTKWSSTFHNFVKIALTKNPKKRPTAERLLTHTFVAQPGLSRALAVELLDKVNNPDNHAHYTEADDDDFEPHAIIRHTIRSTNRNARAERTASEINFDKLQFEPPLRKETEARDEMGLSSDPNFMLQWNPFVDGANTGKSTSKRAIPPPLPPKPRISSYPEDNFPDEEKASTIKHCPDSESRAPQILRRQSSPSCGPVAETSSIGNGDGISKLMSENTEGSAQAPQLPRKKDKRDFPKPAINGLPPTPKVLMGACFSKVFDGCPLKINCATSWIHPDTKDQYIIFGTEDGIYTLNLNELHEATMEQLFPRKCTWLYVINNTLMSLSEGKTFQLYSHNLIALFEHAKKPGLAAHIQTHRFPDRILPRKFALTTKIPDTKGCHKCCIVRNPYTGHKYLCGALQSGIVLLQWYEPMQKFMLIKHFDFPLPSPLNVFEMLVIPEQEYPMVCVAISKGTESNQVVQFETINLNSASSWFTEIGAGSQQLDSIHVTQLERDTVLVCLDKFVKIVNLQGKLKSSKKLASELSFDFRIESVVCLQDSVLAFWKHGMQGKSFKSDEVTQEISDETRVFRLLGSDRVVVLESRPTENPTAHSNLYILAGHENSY", "settings": "kinase MAP4K5 (Entrez MAP4K5)", "in_short": "as §1"}, "[27]": {"target": "T27, 384 kinases from the human genome (Homo sapiens, UniProt Q9Y5S2)", "T27 construct": "purchased Eurofin/DiscoverX", "settings": "kinase MRCKB (Entrez CDC42BPB)", "in_short": "as §1"}},
  "data": [
    {"smiles": "CC(C)C(=O)N1CCN(c2ccc(NC(=O)c3cc4ccccc4o3)cc2Cl)CC1", "note": "[Compound 21]", "values": [
      {"measurement": "Percent Control", "setting": "[1]", "result": 89, "unit": "%"},
      {"measurement": "Percent Control", "setting": "[2]", "result": 96, "unit": "%"},
      {"measurement": "Percent Control", "setting": "[3]", "result": 88, "unit": "%"},
      {"measurement": "Percent Control", "setting": "[4]", "result": 99, "unit": "%"},
      {"measurement": "Percent Control", "setting": "[5]", "result": 55, "unit": "%"},
      {"measurement": "Percent Control", "setting": "[6]", "result": 65, "unit": "%"},
      {"measurement": "Percent Control", "setting": "[7]", "result": 100, "unit": "%"},
      {"measurement": "Percent Control", "setting": "[8]", "result": 69, "unit": "%"},
      {"measurement": "Percent Control", "setting": "[9]", "result": 100, "unit": "%"},
      {"measurement": "Percent Control", "setting": "[10]", "result": 93, "unit": "%"},
      {"measurement": "Percent Control", "setting": "[11]", "result": 98, "unit": "%"},
      {"measurement": "Percent Control", "setting": "[12]", "result": 91, "unit": "%"},
      {"measurement": "Percent Control", "setting": "[13]", "result": 99, "unit": "%"},
      {"measurement": "Percent Control", "setting": "[14]", "result": 96, "unit": "%"},
      {"measurement": "Percent Control", "setting": "[15]", "result": 72, "unit": "%"},
      {"measurement": "Percent Control", "setting": "[16]", "result": 97, "unit": "%"},
      {"measurement": "Percent Control", "setting": "[17]", "result": 77, "unit": "%"},
      {"measurement": "Percent Control", "setting": "[18]", "result": 100, "unit": "%"},
      {"measurement": "Percent Control", "setting": "[19]", "result": 83, "unit": "%"},
      {"measurement": "Percent Control", "setting": "[20]", "result": 79, "unit": "%"},
      {"measurement": "Percent Control", "setting": "[21]", "result": 79, "unit": "%"},
      {"measurement": "Percent Control", "setting": "[22]", "result": 100, "unit": "%"},
      {"measurement": "Percent Control", "setting": "[23]", "result": 72, "unit": "%"},
      {"measurement": "Percent Control", "setting": "[24]", "result": 93, "unit": "%"},
      {"measurement": "Percent Control", "setting": "[25]", "result": 55, "unit": "%"},
      {"measurement": "Percent Control", "setting": "[26]", "result": 80, "unit": "%"},
      {"measurement": "Percent Control", "setting": "[27]", "result": 94, "unit": "%"}
    ]}
  ]
}
